In this assay the target is T1, mycL-Hmg2-GFP (1myc-Hmg2-GFP; Hmg2 transmembrane region) (Saccharomyces cerevisiae, UniProt P12684).
T1 sequence (P12684 1-535 limits assumed): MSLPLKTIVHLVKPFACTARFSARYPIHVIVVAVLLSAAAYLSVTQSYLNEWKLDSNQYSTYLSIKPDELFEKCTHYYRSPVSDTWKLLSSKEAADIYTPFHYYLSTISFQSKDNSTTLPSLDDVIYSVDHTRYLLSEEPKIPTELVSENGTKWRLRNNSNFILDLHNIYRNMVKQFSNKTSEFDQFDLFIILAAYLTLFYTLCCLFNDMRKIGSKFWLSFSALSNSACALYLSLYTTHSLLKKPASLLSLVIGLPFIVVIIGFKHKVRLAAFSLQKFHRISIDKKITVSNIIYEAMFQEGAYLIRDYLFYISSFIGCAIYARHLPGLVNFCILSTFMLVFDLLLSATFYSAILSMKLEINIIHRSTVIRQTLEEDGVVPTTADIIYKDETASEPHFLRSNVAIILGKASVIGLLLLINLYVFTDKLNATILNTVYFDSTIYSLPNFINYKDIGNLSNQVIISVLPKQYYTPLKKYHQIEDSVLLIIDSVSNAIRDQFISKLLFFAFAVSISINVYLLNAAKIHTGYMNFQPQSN
Briefly: limited trypsin proteolysis of microsomes, anti-myc immunoblot. Type of assay: biochemical.

With `CC(C)=CCC/C(C)=C/CC/C(C)=C/CC/C(C)=C/COP(=O)(O)OP(=O)(O)O` [GGPP, geranylgeranyl pyrophosphate], the EC50 is under 200 nM.

Values taken from publication doi:10.1101/177311v3 (biorxiv, 2018).
